From the NIST ThermoML archive (doi:10.1016/j.jct.2007.07.002)
Numbers after ± are expanded uncertainties.

Details: Gas, double Helmholtz acoustic resonator

O=C=O [carbon dioxide]
Details | kinematic viscosity [m2/s] | speed of sound [m/s]
300 K, 2272.2 kPa | – | 251.86 ± 0.052
300 K, 2577.9 kPa | 2.92e-07 ± 3.5e-09 | 249.12 ± 0.052
300 K, 2893.9 kPa | 2.57e-07 ± 3.1e-09 | 246.21 ± 0.051
300 K, 3145.8 kPa | 2.33e-07 ± 2.8e-09 | 243.81 ± 0.051
304.77 K, 317.81 kPa | 2.78e-06 ± 3.3e-08 | 269.84 ± 0.055
304.77 K, 527.05 kPa | 1.65e-06 ± 2e-08 | 268.3 ± 0.054
304.77 K, 745.25 kPa | 1.15e-06 ± 1.4e-08 | 266.69 ± 0.054
304.77 K, 979.77 kPa | 8.66e-07 ± 1e-08 | 264.94 ± 0.054
304.77 K, 1201.7 kPa | 6.98e-07 ± 8.4e-09 | 263.26 ± 0.054
304.77 K, 1478.9 kPa | 5.59e-07 ± 6.7e-09 | 261.12 ± 0.053
304.77 K, 1699.4 kPa | 4.82e-07 ± 5.8e-09 | 259.4 ± 0.053
304.77 K, 1950 kPa | 4.14e-07 ± 5e-09 | 257.4 ± 0.053
304.77 K, 2235.2 kPa | 3.57e-07 ± 4.3e-09 | 255.09 ± 0.052
304.77 K, 2552.7 kPa | 3.07e-07 ± 3.7e-09 | 252.45 ± 0.052
304.77 K, 2881 kPa | 2.69e-07 ± 4e-09 | 249.66 ± 0.052
304.77 K, 3135.9 kPa | 2.44e-07 ± 2.9e-09 | 247.43 ± 0.052
310 K, 342.08 kPa | 2.66e-06 ± 3.2e-08 | 271.86 ± 0.055
310 K, 552.05 kPa | 1.63e-06 ± 2e-08 | 270.4 ± 0.055
310 K, 773.76 kPa | 1.15e-06 ± 1.4e-08 | 268.86 ± 0.055
310 K, 1018 kPa | 8.63e-07 ± 1e-08 | 267.13 ± 0.054
310 K, 1259.3 kPa | 6.9e-07 ± 8.3e-09 | 265.4 ± 0.054
310 K, 1549 kPa | 5.53e-07 ± 6.6e-09 | 263.3 ± 0.054
310 K, 1786.6 kPa | 4.75e-07 ± 5.7e-09 | 261.55 ± 0.053
310 K, 2055.6 kPa | 4.08e-07 ± 4.9e-09 | 259.54 ± 0.053
310 K, 2363 kPa | 3.49e-07 ± 4.2e-09 | 257.19 ± 0.053
310 K, 2708.8 kPa | 3e-07 ± 3.6e-09 | 254.5 ± 0.052
310 K, 3078 kPa | 2.6e-07 ± 3.1e-09 | 251.56 ± 0.052
330 K, 201.27 kPa | 5.17e-06 ± 6.2e-08 | 280.89 ± 0.057
330 K, 402.42 kPa | 2.55e-06 ± 3.1e-08 | 279.73 ± 0.057
330 K, 626.86 kPa | 1.62e-06 ± 1.9e-08 | 278.46 ± 0.056
330 K, 846.53 kPa | 1.19e-06 ± 1.4e-08 | 277.21 ± 0.056
330 K, 1059.3 kPa | 9.44e-07 ± 1.1e-08 | 276 ± 0.056
330 K, 1333 kPa | 7.43e-07 ± 8.9e-09 | 274.43 ± 0.056
330 K, 1559.3 kPa | 6.3e-07 ± 7.6e-09 | 273.12 ± 0.055
330 K, 1813.1 kPa | 5.37e-07 ± 6.4e-09 | 271.64 ± 0.055
330 K, 2103.2 kPa | 4.59e-07 ± 5.5e-09 | 269.94 ± 0.055
330 K, 2423.4 kPa | 3.94e-07 ± 4.7e-09 | 268.06 ± 0.055
330 K, 2778.7 kPa | 3.4e-07 ± 4.1e-09 | 265.94 ± 0.054
330 K, 3067.6 kPa | 3.06e-07 ± 3.7e-09 | 264.21 ± 0.054
350 K, 234.16 kPa | 4.97e-06 ± 6.4e-08 | 288.49 ± 0.058
350 K, 440.84 kPa | 2.61e-06 ± 3.1e-08 | 287.51 ± 0.058
350 K, 660.1 kPa | 1.73e-06 ± 2.1e-08 | 286.5 ± 0.058
350 K, 905.02 kPa | 1.25e-06 ± 1.5e-08 | 285.36 ± 0.058
350 K, 1143.5 kPa | 9.86e-07 ± 1.2e-08 | 284.25 ± 0.058
350 K, 1347.8 kPa | 8.31e-07 ± 1e-08 | 283.31 ± 0.057
350 K, 1584.4 kPa | 7.03e-07 ± 8.4e-09 | 282.2 ± 0.057
350 K, 1873 kPa | 5.9e-07 ± 7.1e-09 | 280.86 ± 0.057
350 K, 2228.5 kPa | 4.92e-07 ± 5.9e-09 | 279.21 ± 0.057
350 K, 2447.3 kPa | 4.45e-07 ± 5.3e-09 | 278.19 ± 0.057
350 K, 2827.2 kPa | 3.82e-07 ± 4.6e-09 | 276.43 ± 0.056
350 K, 3133.8 kPa | 3.42e-07 ± 4.1e-09 | 275.01 ± 0.056
370 K, 335.49 kPa | 3.82e-06 ± 4.6e-08 | 295.63 ± 0.06
370 K, 537.7 kPa | 2.37e-06 ± 2.9e-08 | 294.86 ± 0.059
370 K, 749.31 kPa | 1.7e-06 ± 2e-08 | 294.05 ± 0.059
370 K, 964.83 kPa | 1.31e-06 ± 1.6e-08 | 293.24 ± 0.059
370 K, 1228.5 kPa | 1.03e-06 ± 1.2e-08 | 292.24 ± 0.059
370 K, 1449.3 kPa | 8.66e-07 ± 1e-08 | 291.41 ± 0.059
370 K, 1714.1 kPa | 7.29e-07 ± 8.7e-09 | 290.42 ± 0.059
370 K, 2019 kPa | 6.15e-07 ± 7.4e-09 | 289.27 ± 0.059
370 K, 2382.7 kPa | 5.18e-07 ± 6.2e-09 | 287.93 ± 0.058
370 K, 2771.7 kPa | 4.42e-07 ± 5.3e-09 | 286.5 ± 0.058
370 K, 3095.9 kPa | 3.93e-07 ± 4.7e-09 | 285.31 ± 0.058
